This data set is described as follows: Agilent ZORBAX Eclipse Plus C18, 150 × 2.1 mm, 3.5 µm, 0.2 mL/min, estimated dead time 1.7 min; A: water + 0.1% formic acid; B: acetonitrile; gradient (min/%B) 0/10 20/54 23/100 32/100. The conditions noted are these: stereoisomer not certain.
For `CC(C)=CCc1c(O)cc(O)c2c(=O)c3ccc(O)c(O)c3oc12`, the LC retention time is 28.8 min. The value for `CC1=CC(=O)CC(C)(C)C1(O)C=CC(C)OC1OC(CO)C(O)C(O)C1O` (stereo not given) was 10.3 min; that for `O=c1c2cccc(O)c2oc2cc(O)cc(O)c12` was 26.9 min. Regarding `CC1OC(Oc2cc(O)c3c(=O)c(O)c(-c4ccc(O)cc4)oc3c2)C(O)C(O)C1O` (stereo not given), the LC retention time is 10.2 min. The result for `O=C1c2c(O)cc(O)cc2OC(c2ccc(O)c(O)c2)C1O` (stereo not given) reads 11.6 min. The result for `O=C1CC(c2ccc(O)cc2)Oc2cc(O)cc(O)c21` (stereo not given) reads 15 min; that for `CC(C)=CCCC(C)=CCc1c(O)c(CC2=C(O)C(C)(C)C(=O)C(C(=O)C(C)C)=C2O)c(O)c(C(=O)C(C)C)c1O`, 18.3 min. For the compound `COc1cc(C=CC(=O)O)cc(OC)c1O`, the LC retention time is 15.2 min.

With `COc1cc2oc(-c3ccccc3)c(OC)c(=O)c2c(OC)c1OC`, the LC retention time is 15.9 min.

For `COc1ccc2ccc(=O)oc2c1`, the LC retention time was 22.7 min. The value for `COc1cc(O)c2c(=O)c(O)c(-c3ccc(O)cc3)oc2c1` was 12.5 min. On to `O=C(C=Cc1ccc(O)c(O)c1)OC1C(O)CC(O)(C(=O)O)CC1O` (stereo not given), for which the LC retention time is 6.6 min. `CC1(C)C=Cc2c(cc(O)c3c(=O)c4cccc(O)c4oc23)O1`: the LC retention time is 29 min. The result for `COc1ccc2c(=O)c3cccc(O)c3oc2c1` reads 25.7 min; that for `COc1ccc2ccc(=O)oc2c1CC=C(C)C`, 26 min. Regarding `CC1OC(OCC2OC(Oc3c(-c4ccc(O)c(O)c4)oc4cc(O)cc(O)c4c3=O)C(O)C(O)C2O)C(O)C(O)C1O` (stereo not given), the LC retention time was 9.7 min. The value for `CC1(C)C=Cc2c(cc(O)c3c(=O)c4ccc(O)c(O)c4oc23)O1` was 15.6 min; that for `O=c1c(OC2OC(CO)C(O)C(O)C2O)c(-c2ccc(O)c(O)c2)oc2cc(O)cc(O)c12` (stereo not given) was 8.8 min. Consider `COc1c(-c2ccc(O)c(O)c2)oc2cc(O)cc(O)c2c1=O`, for which the LC retention time is 12.2 min. Turning to `O=c1c(-c2c(O)cc(O)c3c(=O)cc(-c4ccc(O)cc4)oc23)c(-c2ccc(O)cc2)oc2cc(O)cc(O)c12`, the LC retention time is 13.6 min.

Regarding `CCC(C)C(=O)c1c(O)c(C)c(O)c(CC2=C(O)C(C)(C)C(=O)C(C(=O)C(C)C)=C2O)c1O` (stereo not given), the LC retention time is 18.4 min. `CC1OC(Oc2c(-c3ccc(O)c(O)c3)oc3cc(O)cc(O)c3c2=O)C(O)C(O)C1O` (stereo not given): the LC retention time is 9.9 min. Consider `O=c1ccc2ccc(O)cc2o1`, for which the LC retention time is 20.5 min. `Cc1c(O)c(CC2=C(O)C(C)(C)C(=O)C(C(=O)C(C)C)=C2O)c(O)c(C(=O)C(C)C)c1O`: the LC retention time was 20.1 min. Turning to `CC(C)=CCC1CC2(CC=C(C)C)C(=O)C(=C(O)c3ccccc3)C(=O)C(CC=C(C)C)(C2=O)C1(C)C` (stereo not given), the LC retention time was 20.4 min.

In the case of `O=c1c(O)c(-c2ccc(O)cc2)oc2cc(O)cc(O)c12`, the LC retention time was 13.5 min. The value for `O=C(O)C1OC(Oc2c(-c3ccc(O)c(O)c3)oc3cc(O)cc(O)c3c2=O)C(O)C(O)C1O` (stereo not given) was 9.3 min; that for `O=C(O)C1(O)CC(O)C(O)C(O)C1` (stereo not given) was 3.1 min. The value for `O=c1c(O)c(-c2ccc(O)c(O)c2)oc2cc(O)cc(O)c12` was 10.6 min; that for `C=C(C)C1CC=C2C(O)CC(O)C(C)C2(C)C1` (stereo not given) was 31.6 min.

Turning to `O=c1cc(-c2ccc(O)c(-c3c(O)cc(O)c4c(=O)cc(-c5ccc(O)cc5)oc34)c2)oc2cc(O)cc(O)c12`, the LC retention time was 14.9 min. The result for `CCC(C)C(=O)c1c(O)c(C)c(OCC=C(C)CCC=C(C)C)c(C(C)=O)c1O` (stereo not given) reads 15.4 min; that for `CC(C)(OC1OC(CO)C(O)C(O)C1O)C1CCC(CO)(C(O)CO)O1` (stereo not given), 23.6 min; that for `O=C(C=Cc1ccc(O)c(O)c1)OC1CC(O)(C(=O)O)CC(O)C1O` (stereo not given), 5.2 min. The result for `O=C1c2c(O)cc(O)cc2OC(c2ccc(O)cc2)C1O` (stereo not given) reads 14 min.

The record behind these values is the RepoRT retention time repository (doi:10.1016/j.jpba.2019.06.042).
